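Five compound concentrations were applied to cells in 96-well plates for 48 hours; endpoints were derived by simple linear interpolation of the resulting dose-response curve. TGI is the concentration that stops growth completely.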

The first assay relates to SW-620 colon. As to the kind of experiment: NCI-60 cell line screen, 48 h.
`CCOC(=O)c1c2c(n3ccccc13)C(=O)c1ccccc1C2=O` had a TGI above 100 µM.

A further assay relates to M14 melanoma. Briefly: NCI-60 cell line screen, 48 h.
The compound `CN(CC1(CO)CCC1)c1cc(Cl)nc(N)n1` showed a TGI above 100 µM.
As to `COc1cc(C=C2C(C)=NN(c3cccc(Cl)c3)C23SCC(=O)N3c2nc3ccccc3s2)ccc1O` (stereo not drawn), the TGI was above 100 µM.
For `CC[C@H]1C=CCC[C@@]2(C[C@@H]3CC[C@@H]4[C@H](C(=O)OCCCCCCCCCCCCCCCC(=O)O)[C@]5(CCC[C@@H](C)O5)NC(=[N+]34)N2)O1`, the TGI is 0.212 µM.
As for `CCOC(=O)c1c2c(n3ccccc13)C(=O)c1ccccc1C2=O`, the TGI is above 100 µM.

Another assay deals with HT29 colon. Briefly: NCI-60 cell line screen, 48 h.
For the compound `CN(CC1(CO)CCC1)c1cc(Cl)nc(N)n1`, the TGI is above 100 µM.
Take `COc1cc(C=C2C(C)=NN(c3cccc(Cl)c3)C23SCC(=O)N3c2nc3ccccc3s2)ccc1O` (stereo not drawn): the TGI is above 100 µM.
Consider `CC[C@H]1C=CCC[C@@]2(C[C@@H]3CC[C@@H]4[C@H](C(=O)OCCCCCCCCCCCCCCCC(=O)O)[C@]5(CCC[C@@H](C)O5)NC(=[N+]34)N2)O1`, for which the TGI is 5.61 µM.
On the same count and under the same terms, in the case of `CCOC(=O)c1c2c(n3ccccc13)C(=O)c1ccccc1C2=O` it was above 100 µM.

In another assay the test system is TK-10 renal. As to the kind of experiment: NCI-60 cell line screen, 48 h.
Consider `CN(CC1(CO)CCC1)c1cc(Cl)nc(N)n1`, for which the TGI is above 100 µM.
As to `COc1cc(C=C2C(C)=NN(c3cccc(Cl)c3)C23SCC(=O)N3c2nc3ccccc3s2)ccc1O` (stereo not drawn), the TGI was above 100 µM.
The same measure, in the same setting: to `CC[C@H]1C=CCC[C@@]2(C[C@@H]3CC[C@@H]4[C@H](C(=O)OCCCCCCCCCCCCCCCC(=O)O)[C@]5(CCC[C@@H](C)O5)NC(=[N+]34)N2)O1` belongs 8.73 µM; to `CCOC(=O)c1c2c(n3ccccc13)C(=O)c1ccccc1C2=O`, above 100 µM.

The next assay concerns A549 NSCLC. Briefly: NCI-60 cell line screen, 48 h.
On to `CN(CC1(CO)CCC1)c1cc(Cl)nc(N)n1`, for which the TGI is above 100 µM.
Take `COc1cc(C=C2C(C)=NN(c3cccc(Cl)c3)C23SCC(=O)N3c2nc3ccccc3s2)ccc1O` (stereo not drawn): the TGI was above 100 µM.
As for `CC[C@H]1C=CCC[C@@]2(C[C@@H]3CC[C@@H]4[C@H](C(=O)OCCCCCCCCCCCCCCCC(=O)O)[C@]5(CCC[C@@H](C)O5)NC(=[N+]34)N2)O1`, the TGI came to 5.87 µM.
In the case of `CCOC(=O)c1c2c(n3ccccc13)C(=O)c1ccccc1C2=O`, the TGI worked out at 43.2 µM.

For another assay, the system named is UO-31 renal. Briefly: NCI-60 cell line screen, 48 h.
Take `CN(CC1(CO)CCC1)c1cc(Cl)nc(N)n1`: the TGI was above 100 µM.
Regarding `COc1cc(C=C2C(C)=NN(c3cccc(Cl)c3)C23SCC(=O)N3c2nc3ccccc3s2)ccc1O` (stereo not drawn), the TGI is above 92.2 µM.
`CC[C@H]1C=CCC[C@@]2(C[C@@H]3CC[C@@H]4[C@H](C(=O)OCCCCCCCCCCCCCCCC(=O)O)[C@]5(CCC[C@@H](C)O5)NC(=[N+]34)N2)O1` registered a TGI of 0.339 µM.
The compound `CCOC(=O)c1c2c(n3ccccc13)C(=O)c1ccccc1C2=O` returned a TGI above 100 µM.

The next assay deals with MCF7 breast. Briefly: NCI-60 cell line screen, 48 h.
Turning to `CN(CC1(CO)CCC1)c1cc(Cl)nc(N)n1`, the TGI is above 100 µM.
`COc1cc(C=C2C(C)=NN(c3cccc(Cl)c3)C23SCC(=O)N3c2nc3ccccc3s2)ccc1O` (stereo not drawn) registered a TGI above 100 µM.
`CC[C@H]1C=CCC[C@@]2(C[C@@H]3CC[C@@H]4[C@H](C(=O)OCCCCCCCCCCCCCCCC(=O)O)[C@]5(CCC[C@@H](C)O5)NC(=[N+]34)N2)O1`: the TGI amounted to 4.95 µM.
Consider `CCOC(=O)c1c2c(n3ccccc13)C(=O)c1ccccc1C2=O`, for which the TGI was above 100 µM.

The subject of another assay is OVCAR-8 ovarian. Briefly: NCI-60 cell line screen, 48 h.
In the case of `CN(CC1(CO)CCC1)c1cc(Cl)nc(N)n1`, the TGI was above 100 µM.
Take `COc1cc(C=C2C(C)=NN(c3cccc(Cl)c3)C23SCC(=O)N3c2nc3ccccc3s2)ccc1O` (stereo not drawn): the TGI came to 50.5 µM.
Same read-out and setting: to `CC[C@H]1C=CCC[C@@]2(C[C@@H]3CC[C@@H]4[C@H](C(=O)OCCCCCCCCCCCCCCCC(=O)O)[C@]5(CCC[C@@H](C)O5)NC(=[N+]34)N2)O1` belongs 8.03 µM.
In turn, `CCOC(=O)c1c2c(n3ccccc13)C(=O)c1ccccc1C2=O` came in with a TGI above 100 µM.

Another assay has as its system EKVX NSCLC. As to the kind of experiment: NCI-60 cell line screen, 48 h.
In turn, `CN(CC1(CO)CCC1)c1cc(Cl)nc(N)n1` came in with a TGI above 100 µM.
For the compound `COc1cc(C=C2C(C)=NN(c3cccc(Cl)c3)C23SCC(=O)N3c2nc3ccccc3s2)ccc1O` (stereo not drawn), the TGI is above 100 µM.
Consider `CC[C@H]1C=CCC[C@@]2(C[C@@H]3CC[C@@H]4[C@H](C(=O)OCCCCCCCCCCCCCCCC(=O)O)[C@]5(CCC[C@@H](C)O5)NC(=[N+]34)N2)O1`, for which the TGI was found to be 10.5 µM.
`CCOC(=O)c1c2c(n3ccccc13)C(=O)c1ccccc1C2=O` displayed a TGI above 100 µM.

A further assay concerns MDA-MB-231 breast. As to the kind of experiment: NCI-60 cell line screen, 48 h.
Compound `CN(CC1(CO)CCC1)c1cc(Cl)nc(N)n1` displayed a TGI above 100 µM.
On the same count and under the same terms, to `COc1cc(C=C2C(C)=NN(c3cccc(Cl)c3)C23SCC(=O)N3c2nc3ccccc3s2)ccc1O` (stereo not drawn) belongs 54.6 µM; to `CC[C@H]1C=CCC[C@@]2(C[C@@H]3CC[C@@H]4[C@H](C(=O)OCCCCCCCCCCCCCCCC(=O)O)[C@]5(CCC[C@@H](C)O5)NC(=[N+]34)N2)O1`, 9.09 µM; to `CCOC(=O)c1c2c(n3ccccc13)C(=O)c1ccccc1C2=O`, above 100 µM.

In a further assay the test system is MDA-N. Briefly: NCI-60 cell line screen, 48 h.
On to `CN(CC1(CO)CCC1)c1cc(Cl)nc(N)n1`, for which the TGI was above 100 µM.
As to `COc1cc(C=C2C(C)=NN(c3cccc(Cl)c3)C23SCC(=O)N3c2nc3ccccc3s2)ccc1O` (stereo not drawn), the TGI was above 100 µM.
`CC[C@H]1C=CCC[C@@]2(C[C@@H]3CC[C@@H]4[C@H](C(=O)OCCCCCCCCCCCCCCCC(=O)O)[C@]5(CCC[C@@H](C)O5)NC(=[N+]34)N2)O1` yielded a TGI of 7.68 µM.
`CCOC(=O)c1c2c(n3ccccc13)C(=O)c1ccccc1C2=O` showed a TGI above 100 µM.

In the next assay the test system is NCI-H522 lung. As to the kind of experiment: NCI-60 cell line screen, 48 h.
Regarding `CN(CC1(CO)CCC1)c1cc(Cl)nc(N)n1`, the TGI was above 100 µM.
Turning to `COc1cc(C=C2C(C)=NN(c3cccc(Cl)c3)C23SCC(=O)N3c2nc3ccccc3s2)ccc1O` (stereo not drawn), the TGI was 41.5 µM.
Turning to `CC[C@H]1C=CCC[C@@]2(C[C@@H]3CC[C@@H]4[C@H](C(=O)OCCCCCCCCCCCCCCCC(=O)O)[C@]5(CCC[C@@H](C)O5)NC(=[N+]34)N2)O1`, the TGI is 0.365 µM.
Still for that read-out and setting: in the case of `CCOC(=O)c1c2c(n3ccccc13)C(=O)c1ccccc1C2=O` it was above 100 µM.

For the next assay, the system named is IGROV1 ovarian. Briefly: NCI-60 cell line screen, 48 h.
The compound `CN(CC1(CO)CCC1)c1cc(Cl)nc(N)n1` registered a TGI above 100 µM.
Turning to `COc1cc(C=C2C(C)=NN(c3cccc(Cl)c3)C23SCC(=O)N3c2nc3ccccc3s2)ccc1O` (stereo not drawn), the TGI is above 100 µM.
`CC[C@H]1C=CCC[C@@]2(C[C@@H]3CC[C@@H]4[C@H](C(=O)OCCCCCCCCCCCCCCCC(=O)O)[C@]5(CCC[C@@H](C)O5)NC(=[N+]34)N2)O1`: the TGI was found to be 8.93 µM.
`CCOC(=O)c1c2c(n3ccccc13)C(=O)c1ccccc1C2=O` displayed a TGI above 100 µM.

The next assay relates to CCRF-CEM leukemia. Briefly: NCI-60 cell line screen, 48 h.
As to `CN(CC1(CO)CCC1)c1cc(Cl)nc(N)n1`, the TGI is above 100 µM.
The same measure, in the same setting: in the case of `COc1cc(C=C2C(C)=NN(c3cccc(Cl)c3)C23SCC(=O)N3c2nc3ccccc3s2)ccc1O` (stereo not drawn) it was 15.8 µM; in that of `CC[C@H]1C=CCC[C@@]2(C[C@@H]3CC[C@@H]4[C@H](C(=O)OCCCCCCCCCCCCCCCC(=O)O)[C@]5(CCC[C@@H](C)O5)NC(=[N+]34)N2)O1`, 0.0215 µM.

A further assay relates to NCI-H226 lung. Briefly: NCI-60 cell line screen, 48 h.
The compound `CN(CC1(CO)CCC1)c1cc(Cl)nc(N)n1` displayed a TGI above 100 µM.
As to `COc1cc(C=C2C(C)=NN(c3cccc(Cl)c3)C23SCC(=O)N3c2nc3ccccc3s2)ccc1O` (stereo not drawn), the TGI is above 80.7 µM.
The compound `CC[C@H]1C=CCC[C@@]2(C[C@@H]3CC[C@@H]4[C@H](C(=O)OCCCCCCCCCCCCCCCC(=O)O)[C@]5(CCC[C@@H](C)O5)NC(=[N+]34)N2)O1` displayed a TGI of 3.69 µM.
With `CCOC(=O)c1c2c(n3ccccc13)C(=O)c1ccccc1C2=O`, the TGI is above 100 µM.

The test system of another assay is U251 CNS. Briefly: NCI-60 cell line screen, 48 h.
Turning to `CN(CC1(CO)CCC1)c1cc(Cl)nc(N)n1`, the TGI was above 100 µM.
`COc1cc(C=C2C(C)=NN(c3cccc(Cl)c3)C23SCC(=O)N3c2nc3ccccc3s2)ccc1O` (stereo not drawn) registered a TGI of 41.4 µM.

(Values after PubChem BioAssay (NCI).)
